Source: patent US12577206B2 (BRISTOL-MYERS SQUIBB COMPANY, priority 2020, dated 2026)

How the values were obtained:
[1] = target: T1, human FPR2 (Homo sapiens, UniProt P25090); assay: FPR2 cyclic adenosine monophosphate (cAMP) assay; type: cell-based; settings: CHO cells overexpressing human FPR2; forskolin 5 μM; inhibition of cAMP production; HTRF; read-out: hFPR2 cAMP2 EC50
T1 sequence (P25090 1-351): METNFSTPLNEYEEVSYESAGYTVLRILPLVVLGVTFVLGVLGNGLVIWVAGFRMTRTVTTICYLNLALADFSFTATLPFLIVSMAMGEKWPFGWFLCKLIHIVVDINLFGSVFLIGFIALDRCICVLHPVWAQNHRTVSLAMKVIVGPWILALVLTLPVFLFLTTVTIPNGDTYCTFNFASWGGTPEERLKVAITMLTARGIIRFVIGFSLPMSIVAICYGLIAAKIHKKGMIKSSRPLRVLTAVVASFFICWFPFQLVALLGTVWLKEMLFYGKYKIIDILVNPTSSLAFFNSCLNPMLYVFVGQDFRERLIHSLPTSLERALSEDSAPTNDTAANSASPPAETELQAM
Outline: (§1)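 Inhibition of forskolin-stimulated cAMP (final forskolin 5 μM for FPR2, 10 μM for FPR1; IBMX 200 μM) was measured by HTRF in recombinant CHO cells after 30 min at room temperature.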

[2] = target: T2, human FPR1 (Homo sapiens, UniProt P21462); assay: FPR1 cyclic adenosine monophosphate (cAMP) assay; type: cell-based; settings: CHO cells overexpressing human FPR1; forskolin 10 μM; inhibition of cAMP production; HTRF; read-out: hFPR1 cAMP2 EC50
T2 sequence (P21462 1-350): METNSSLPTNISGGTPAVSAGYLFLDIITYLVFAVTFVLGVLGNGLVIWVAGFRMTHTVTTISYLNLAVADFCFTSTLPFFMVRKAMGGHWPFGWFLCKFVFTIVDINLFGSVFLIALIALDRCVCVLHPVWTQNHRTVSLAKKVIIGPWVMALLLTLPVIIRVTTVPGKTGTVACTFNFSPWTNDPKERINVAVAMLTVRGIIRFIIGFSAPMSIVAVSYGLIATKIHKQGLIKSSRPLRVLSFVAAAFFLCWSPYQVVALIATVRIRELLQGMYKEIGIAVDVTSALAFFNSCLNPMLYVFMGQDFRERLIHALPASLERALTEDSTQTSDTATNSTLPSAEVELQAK
Outline: as §1

| EC50 [1] [µM] | EC50 [2] [µM] | Structure (SMILES) |
| --- | --- | --- |
| 0.001 | 2.7 | COc1cc(F)c(-c2c(NC(=O)c3ccc(OC(F)F)cc3)c(=O)n(-c3nc(N4CCC(C)(O)CC4)ccc3C(F)(F)F)n2C)c(F)c1 [Example 314, N-[5-(2,6-difluoro-4-methoxyphenyl)-2-[6-(4-hydroxy-4-methylpiperidin-1-yl)-3-(trifluoromethyl)pyridin-2-yl]-1-methyl-3-oxo-2,3-dihydro-1H-pyrazol-4-yl]-4-(difluoromethoxy)benzamide] |
| 0.002 | 2.7 | COc1cc(F)c(-c2c(NC(=O)c3ccc(OC(F)F)cc3)c(=O)n(-c3nc(N4CC[C@H](O)C4)ccc3C(F)(F)F)n2C)c(F)c1 [Example 280, N-[5-(2,6-difluoro-4-methoxyphenyl)-2-{6-[(3S)-3-hydroxypyrrolidin-1-yl]-3-(trifluoromethyl)pyridin-2-yl}-1-methyl-3-oxo-2,3-dihydro-1H-pyrazol-4-yl]-4-(difluoromethoxy)benzamide] |
| 0.009 | > 5 | COc1cc(F)c(-c2c(NC(=O)c3ccc(OC(F)F)cc3)c(=O)n(-c3nc(N4CCC[C@H]4CO)ccc3C(F)(F)F)n2C)c(F)c1 [Example 258, N-[5-(2,6-difluoro-4-methoxyphenyl)-2-{6-[(2S)-2-(hydroxymethyl)pyrrolidin-1-yl]-3-(trifluoromethyl)pyridin-2-yl}-1-methyl-3-oxo-2,3-dihydro-1H-pyrazol-4-yl]-4-(difluoromethoxy)benzamide] |
| 0.014 | 1.3 | COc1cc(F)c(-c2c(NC(=O)c3ccc(OC(F)F)cc3)c(=O)n(-c3cccc(OCCO)n3)n2C)c(F)c1 [Example 333, N-(5-(2,6-Difluoro-4-methoxyphenyl)-2-(6-(2-hydroxyethoxy)pyridin-2-yl)-1-methyl-3-oxo-2,3-dihydro-1H-pyrazol-4-yl)-4-(difluoromethoxy)benzamide] |
| 0.057 | > 10 | Cc1cc(OCC(C)(C)O)nc(-n2c(=O)c(NC(=O)c3ccc(OC(F)F)cc3)c(-c3c(F)cc(OC(F)F)cc3F)n2C)c1 [Example 400, 4-(difluoromethoxy)-N-(5-(4-(difluoromethoxy)-2,6-difluorophenyl)-2-(6-(2-hydroxy-2-methylpropoxy)-4-methylpyridin-2-yl)-1-methyl-3-oxo-2,3-dihydro-1H-pyrazol-4-yl)benzamide] |
| 0.315 | > 10 | COc1ccc(-c2c(NC(=O)c3ccc(OC(F)F)cc3)c(=O)n(-c3ncccc3C(F)(F)F)n2C)cc1C [Example 246, 4-(difluoromethoxy)-N-(5-(4-methoxy-3-methylphenyl)-1-methyl-3-oxo-2-(3-(trifluoromethyl)pyridin-2-yl)-2,3-dihydro-1H-pyrazol-4-yl)benzamide] |
| 0.017 | 0.73 | Cn1c(-c2ccc(C3CC3)cc2)c(NC(=O)c2ccc(OC(F)F)cc2)c(=O)n1-c1ncccc1C(F)(F)F [Example 277, N-[5-(4-cyclopropylphenyl)-1-methyl-3-oxo-2-[3-(trifluoromethyl)pyridin-2-yl]-2,3-dihydro-1H-pyrazol-4-yl]-4-(difluoromethoxy)benzamide] |

The remaining lines, values behind:

| Structure (SMILES) | EC50 [1] [µM] | EC50 [2] [µM] |
| --- | --- | --- |
| COCCN1CCN(c2cccc(-n3c(=O)c(NC(=O)c4ccc(OC(F)F)cc4)c(-c4c(F)cc(OC)cc4F)n3C)n2)CC1 [Example 212, N-[5-(2,6-difluoro-4-methoxyphenyl)-2-{6-[4-(2-methoxyethyl)piperazin-1-yl]pyridin-2-yl}-1-methyl-3-oxo-2,3-dihydro-1H-pyrazol-4-yl]-4-(difluoromethoxy)benzamide] | 0.009 | > 10 |
| COc1cc(F)c(-c2c(NC(=O)c3ccc(OC(F)F)cc3)c(=O)n(-c3ccnc(OC)c3)n2C)c(F)c1 [Example 115, N-[5-(2,6-difluoro-4-methoxyphenyl)-2-(2-methoxypyridin-4-yl)-1-methyl-3-oxo-2,3-dihydro-1H-pyrazol-4-yl]-4-(difluoromethoxy)benzamide] | 0.005 | 0.28 |
| COc1cc(F)cc(-n2c(=O)c(NC(=O)c3ccc(OC(F)F)cc3)c(-c3c(F)cc(OC)cc3F)n2C)c1 [Example 132, N-[5-(2,6-difluoro-4-methoxyphenyl)-2-(3-fluoro-5-methoxyphenyl)-1-methyl-3-oxo-2,3-dihydro-1H-pyrazol-4-yl]-4-(difluoromethoxy)benzamide] | 0.006 | 0.083 |
| COc1cc(F)c(-c2c(NC(=O)c3ccc(OC(F)F)cc3)c(=O)n(-c3cccc(C#N)c3)n2C)c(F)c1 [Example 110, N-[2-(3-cyanophenyl)-5-(2,6-difluoro-4-methoxyphenyl)-1-methyl-3-oxo-2,3-dihydro-1H-pyrazol-4-yl]-4-(difluoromethoxy)benzamide] | 0.009 | 0.037 |
| COc1cc(F)c(-c2c(NC(=O)c3ccc(OC(F)(F)F)cc3)c(=O)n(-c3cccc(C(F)F)n3)n2C)c(F)c1 [Example 68, N-[5-(2,6-difluoro-4-methoxyphenyl)-2-[6-(difluoromethyl)pyridin-2-yl]-1-methyl-3-oxo-2,3-dihydro-1H-pyrazol-4-yl]-4-(trifluoromethoxy)benzamide] | 0.008 | 1 |
| COc1cc(F)c(-c2c(NC(=O)c3ccc(OC(F)F)cc3)c(=O)n(-c3cc(Cl)cc(C(=O)N(C)C)c3)n2C)c(F)c1 [Example 126, 3-chloro-5-[3-(2,6-difluoro-4-methoxyphenyl)-4-[4-(difluoromethoxy)benzamido]-2-methyl-5-oxo-2,5-dihydro-1H-pyrazol-1-yl]-N,N-dimethylbenzamide] | 0.009 | 1.2 |
| CCc1ccc(N2CCN(C)CC2)nc1-n1c(=O)c(NC(=O)c2ccc(OC(F)F)cc2)c(-c2c(F)cc(OC)cc2F)n1C [Example 244, N-[5-(2,6-difluoro-4-methoxyphenyl)-2-[3-ethyl-6-(4-methylpiperazin-1-yl)pyridin-2-yl]-1-methyl-3-oxo-2,3-dihydro-1H-pyrazol-4-yl]-4-(difluoromethoxy)benzamide] | 0.035 | > 10 |
| COc1cc(F)c(-c2c(NC(=O)c3ccc(OC(F)F)cc3)c(=O)n(-c3nc(Cl)ccc3N3CC(C)(O)C3)n2C)c(F)c1 [Example 203, N-{2-[6-chloro-3-(3-hydroxy-3-methylazetidin-1-yl)pyridin-2-yl]-5-(2,6-difluoro-4-methoxyphenyl)-1-methyl-3-oxo-2,3-dihydro-1H-pyrazol-4-yl}-4-(difluoromethoxy)benzamide] | 0.005 | > 10 |
| COc1cc(F)c(-c2c(NC(=O)c3ccc(OC(F)F)cc3)c(=O)n(-c3cc(C#N)cc(C(C)C)c3)n2C)c(F)c1 [Example 119, N-{2-[3-cyano-5-(propan-2-yl)phenyl]-5-(2,6-difluoro-4-methoxyphenyl)-1-methyl-3-oxo-2,3-dihydro-1H-pyrazol-4-yl}-4-(difluoromethoxy)benzamide] | 0.008 | 0.065 |
| COc1cc(F)c(-c2c(NC(=O)c3ccc(OC(F)F)cc3)c(=O)n(-c3ncccc3N3CC(C)(O)C3)n2C)c(F)c1 [Example 211, N-[5-(2,6-difluoro-4-methoxyphenyl)-2-[3-(3-hydroxy-3-methylazetidin-1-yl)pyridin-2-yl]-1-methyl-3-oxo-2,3-dihydro-1H-pyrazol-4-yl]-4-(difluoromethoxy)benzamide] | 0.012 | > 10 |
